Columns and labels:
[1] = target: Epidermal growth factor receptor (Homo sapiens, UniProt P00533, T790M); experiment: Inhibition of GST-tagged human recombinant EGFR T790M mutant (668 to 1210 residues) expressed in baculovirus using Fluorescein-Poly GT as substrate
[2] = test system: MDA-MB-231; experiment: Antiproliferative activity against human MDA-MB-231 cells after 72 hrs by MTT assay; format: functional, cell-based; details: MDA-MB-231, 72 h
[3] = test system: NCI-H1975; experiment: Antiproliferative activity against human NCI-H1975 cells harboring EGFR L858R/T790M double mutant after 72 hrs by MTT assay; format: functional, cell-based; details: NCI-H1975, 72 h
[4] = Tmax in Swiss mouse plasma at 2 mg/kg, iv by LC/MS/MS analysis; format: ADME, organism-based
[5] = target: Tyrosine-protein kinase Blk (Homo sapiens) (UniProt P51451); experiment: Inhibition of His-tagged full length human recombinant BLK expressed in baculovirus using Fluorescein-Poly GT as substrate at 100 nM
[6] = target: Tyrosine-protein kinase Fgr (Homo sapiens) (UniProt P09769); experiment: Inhibition of His-tagged full length human recombinant FGR expressed in baculovirus using Fluorescein-Poly GT as substrate at 100 nM
[7] = target: Tyrosine-protein kinase HCK (Homo sapiens, UniProt P08631); experiment: Inhibition of GST-tagged full length human recombinant HCK expressed in baculovirus using Fluorescein-Poly GT as substrate
Sequence of Tyrosine-protein kinase HCK (P08631 whole entry, the tested form may be a part): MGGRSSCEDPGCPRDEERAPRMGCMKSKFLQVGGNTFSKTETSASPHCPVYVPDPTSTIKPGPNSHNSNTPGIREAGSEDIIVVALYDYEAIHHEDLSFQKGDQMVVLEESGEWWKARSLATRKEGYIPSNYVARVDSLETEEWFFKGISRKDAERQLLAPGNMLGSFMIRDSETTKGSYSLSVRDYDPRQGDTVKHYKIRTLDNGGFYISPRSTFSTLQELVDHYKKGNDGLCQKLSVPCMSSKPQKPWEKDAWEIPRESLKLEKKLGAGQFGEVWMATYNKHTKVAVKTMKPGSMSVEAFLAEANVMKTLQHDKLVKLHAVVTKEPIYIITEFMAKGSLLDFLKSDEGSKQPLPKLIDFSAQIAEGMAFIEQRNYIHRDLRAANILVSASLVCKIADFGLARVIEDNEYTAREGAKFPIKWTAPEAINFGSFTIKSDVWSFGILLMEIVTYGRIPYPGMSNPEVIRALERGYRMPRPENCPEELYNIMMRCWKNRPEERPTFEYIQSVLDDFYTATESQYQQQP

[8] = target: Epidermal growth factor receptor (Homo sapiens, UniProt P00533); experiment: Inhibition of GST-tagged human recombinant EGFR (668 to1210 residues) expressed in baculovirus using Fluorescein-Poly GT as substrate at 100 nM
[9] = target: Serine/threonine-protein kinase D2 (Homo sapiens) (UniProt Q9BZL6); details: 100 nM
Sequence of Serine/threonine-protein kinase D2 (Homo sapiens) (Q9BZL6 whole entry): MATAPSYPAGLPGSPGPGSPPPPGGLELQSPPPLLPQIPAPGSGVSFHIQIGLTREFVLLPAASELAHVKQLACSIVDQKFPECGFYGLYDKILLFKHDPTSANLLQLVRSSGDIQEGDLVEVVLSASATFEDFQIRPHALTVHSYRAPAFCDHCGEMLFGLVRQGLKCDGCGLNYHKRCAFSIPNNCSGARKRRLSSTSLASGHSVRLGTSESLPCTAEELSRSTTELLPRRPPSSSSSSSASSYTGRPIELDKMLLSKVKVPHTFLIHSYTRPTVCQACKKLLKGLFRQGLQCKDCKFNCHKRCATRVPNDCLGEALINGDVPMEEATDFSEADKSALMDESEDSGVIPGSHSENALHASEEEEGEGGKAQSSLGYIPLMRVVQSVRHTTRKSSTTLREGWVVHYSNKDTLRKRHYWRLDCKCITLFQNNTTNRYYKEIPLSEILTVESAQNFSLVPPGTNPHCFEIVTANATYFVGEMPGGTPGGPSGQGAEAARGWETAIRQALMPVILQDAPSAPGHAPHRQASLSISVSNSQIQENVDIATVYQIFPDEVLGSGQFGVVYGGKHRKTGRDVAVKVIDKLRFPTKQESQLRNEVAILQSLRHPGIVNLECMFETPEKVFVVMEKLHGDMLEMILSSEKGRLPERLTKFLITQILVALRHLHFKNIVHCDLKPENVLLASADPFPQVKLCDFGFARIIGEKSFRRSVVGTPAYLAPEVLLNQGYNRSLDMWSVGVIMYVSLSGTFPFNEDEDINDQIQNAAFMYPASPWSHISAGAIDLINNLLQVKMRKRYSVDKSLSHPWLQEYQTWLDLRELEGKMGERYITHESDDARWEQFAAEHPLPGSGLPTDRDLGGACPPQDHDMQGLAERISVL
Description: Inhibition of GST-tagged full length human recombinant PKD2 expressed in baculovirus using Fluorescein-CREBtide as substrate at 100 nM

[10] = target: Angiopoietin-1 receptor (Homo sapiens) (UniProt Q02763); details: 100 nM
Sequence of Angiopoietin-1 receptor (Homo sapiens) (Q02763 whole entry): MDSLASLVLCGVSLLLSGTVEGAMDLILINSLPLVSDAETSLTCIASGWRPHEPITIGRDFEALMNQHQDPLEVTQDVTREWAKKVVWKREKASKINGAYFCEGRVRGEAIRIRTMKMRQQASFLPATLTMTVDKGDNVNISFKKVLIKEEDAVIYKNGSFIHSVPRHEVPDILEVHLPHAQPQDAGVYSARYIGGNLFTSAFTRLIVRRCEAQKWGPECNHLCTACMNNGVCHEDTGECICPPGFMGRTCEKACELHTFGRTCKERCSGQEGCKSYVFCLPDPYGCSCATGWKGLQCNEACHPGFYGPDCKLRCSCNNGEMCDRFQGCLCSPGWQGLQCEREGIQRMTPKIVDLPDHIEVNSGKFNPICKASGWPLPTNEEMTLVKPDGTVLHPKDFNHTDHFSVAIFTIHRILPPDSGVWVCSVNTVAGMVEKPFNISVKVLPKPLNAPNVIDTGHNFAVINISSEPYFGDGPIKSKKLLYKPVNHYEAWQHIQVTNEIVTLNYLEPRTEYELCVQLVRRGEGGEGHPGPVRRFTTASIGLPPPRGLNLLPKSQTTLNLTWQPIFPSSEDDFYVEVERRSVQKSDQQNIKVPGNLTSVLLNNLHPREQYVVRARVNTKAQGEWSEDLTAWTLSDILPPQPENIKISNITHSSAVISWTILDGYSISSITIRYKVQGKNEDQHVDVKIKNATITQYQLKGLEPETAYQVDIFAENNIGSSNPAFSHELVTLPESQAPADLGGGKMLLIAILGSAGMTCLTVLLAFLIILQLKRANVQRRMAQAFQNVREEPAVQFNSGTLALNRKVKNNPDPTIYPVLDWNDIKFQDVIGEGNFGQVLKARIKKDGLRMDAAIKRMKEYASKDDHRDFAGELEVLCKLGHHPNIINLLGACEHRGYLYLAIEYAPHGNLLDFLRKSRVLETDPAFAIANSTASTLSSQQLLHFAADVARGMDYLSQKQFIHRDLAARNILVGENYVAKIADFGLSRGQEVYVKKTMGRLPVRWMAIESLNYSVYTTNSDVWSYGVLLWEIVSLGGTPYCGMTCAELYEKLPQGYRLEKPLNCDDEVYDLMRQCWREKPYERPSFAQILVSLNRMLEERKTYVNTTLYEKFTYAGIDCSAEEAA
Description: Inhibition of GST-tagged human recombinant TIE2 (817 to 1101 residues) expressed in baculovirus using Fluorescein-Poly GT as substrate at 100 nM

[11] = target: Macrophage colony-stimulating factor 1 receptor (Homo sapiens) (UniProt P07333); details: 100 nM
Sequence of Macrophage colony-stimulating factor 1 receptor (Homo sapiens) (P07333 whole entry): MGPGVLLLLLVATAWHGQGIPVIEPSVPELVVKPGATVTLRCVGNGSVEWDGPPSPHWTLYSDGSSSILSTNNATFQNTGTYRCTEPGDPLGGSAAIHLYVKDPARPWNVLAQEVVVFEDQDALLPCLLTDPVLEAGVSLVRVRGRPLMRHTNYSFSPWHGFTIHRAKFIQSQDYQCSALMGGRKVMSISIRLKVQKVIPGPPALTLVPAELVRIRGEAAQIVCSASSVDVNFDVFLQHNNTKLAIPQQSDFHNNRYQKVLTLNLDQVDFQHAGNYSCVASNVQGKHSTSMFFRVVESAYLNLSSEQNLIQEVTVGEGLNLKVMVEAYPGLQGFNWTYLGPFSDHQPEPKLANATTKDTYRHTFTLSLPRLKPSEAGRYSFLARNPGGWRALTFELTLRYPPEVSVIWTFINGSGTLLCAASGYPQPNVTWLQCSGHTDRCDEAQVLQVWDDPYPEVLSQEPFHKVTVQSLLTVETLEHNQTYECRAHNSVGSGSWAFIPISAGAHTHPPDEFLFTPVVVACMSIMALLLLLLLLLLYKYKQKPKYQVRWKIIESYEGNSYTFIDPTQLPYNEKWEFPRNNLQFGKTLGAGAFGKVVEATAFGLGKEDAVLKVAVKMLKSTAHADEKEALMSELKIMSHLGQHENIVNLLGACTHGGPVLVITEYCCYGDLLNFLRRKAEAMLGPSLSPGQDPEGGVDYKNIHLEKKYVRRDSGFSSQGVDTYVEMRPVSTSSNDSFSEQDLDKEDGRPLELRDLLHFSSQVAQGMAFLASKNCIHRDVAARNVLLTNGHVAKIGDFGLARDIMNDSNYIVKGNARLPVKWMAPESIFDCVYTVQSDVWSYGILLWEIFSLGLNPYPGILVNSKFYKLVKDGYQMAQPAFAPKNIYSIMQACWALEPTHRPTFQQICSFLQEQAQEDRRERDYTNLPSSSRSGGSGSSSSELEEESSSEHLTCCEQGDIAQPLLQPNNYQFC
Description: Inhibition of His-tagged human recombinant CSF1R (538 to 910 residues) expressed in baculovirus using Fluorescein-Poly GT as substrate at 100 nM

[12] = target: Tyrosine-protein kinase Fyn (Homo sapiens, UniProt P06241); details: 100 nM
Description: Inhibition of His-tagged full length human recombinant FYN expressed in baculovirus using Fluorescein-Poly GT as substrate at 100 nM

[13] = target: Tyrosine-protein kinase Fer (Homo sapiens) (UniProt P16591); details: 100 nM
Sequence of Tyrosine-protein kinase Fer (Homo sapiens) (P16591 whole entry, looked up): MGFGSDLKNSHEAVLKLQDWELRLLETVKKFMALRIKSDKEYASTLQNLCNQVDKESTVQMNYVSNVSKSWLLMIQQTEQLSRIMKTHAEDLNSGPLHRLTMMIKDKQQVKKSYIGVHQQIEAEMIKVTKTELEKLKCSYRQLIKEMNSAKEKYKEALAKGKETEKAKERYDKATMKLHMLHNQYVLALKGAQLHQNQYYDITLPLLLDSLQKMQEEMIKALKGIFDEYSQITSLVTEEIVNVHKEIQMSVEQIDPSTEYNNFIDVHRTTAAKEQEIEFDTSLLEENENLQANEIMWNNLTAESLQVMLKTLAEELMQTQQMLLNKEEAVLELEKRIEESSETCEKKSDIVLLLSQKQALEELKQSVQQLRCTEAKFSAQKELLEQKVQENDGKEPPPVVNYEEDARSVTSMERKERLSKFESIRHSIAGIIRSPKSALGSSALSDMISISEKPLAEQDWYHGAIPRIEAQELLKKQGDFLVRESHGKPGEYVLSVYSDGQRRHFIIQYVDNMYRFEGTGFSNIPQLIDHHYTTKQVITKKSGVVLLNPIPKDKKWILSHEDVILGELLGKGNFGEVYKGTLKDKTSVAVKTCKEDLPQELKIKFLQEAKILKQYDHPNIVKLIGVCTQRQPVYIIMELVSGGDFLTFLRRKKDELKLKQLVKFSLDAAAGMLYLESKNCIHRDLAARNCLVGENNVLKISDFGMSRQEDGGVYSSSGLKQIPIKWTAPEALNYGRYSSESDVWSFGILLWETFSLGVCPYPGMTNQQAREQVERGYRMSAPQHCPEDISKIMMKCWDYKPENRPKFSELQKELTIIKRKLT
Description: Inhibition of His-tagged human recombinant FER (541 to 822 residues) expressed in baculovirus using Fluorescein-Poly GT as substrate at 100 nM

[14] = target: Glycogen synthase kinase-3 beta (Homo sapiens) (UniProt P49841); details: 100 nM
Description: Inhibition of GSK3B (unknown origin) at 100 nM

[15] = target: MAP kinase-activated protein kinase 5 (Homo sapiens) (UniProt Q8IW41); details: 100 nM
Sequence of MAP kinase-activated protein kinase 5 (Homo sapiens) (Q8IW41 whole entry, canonical isoform): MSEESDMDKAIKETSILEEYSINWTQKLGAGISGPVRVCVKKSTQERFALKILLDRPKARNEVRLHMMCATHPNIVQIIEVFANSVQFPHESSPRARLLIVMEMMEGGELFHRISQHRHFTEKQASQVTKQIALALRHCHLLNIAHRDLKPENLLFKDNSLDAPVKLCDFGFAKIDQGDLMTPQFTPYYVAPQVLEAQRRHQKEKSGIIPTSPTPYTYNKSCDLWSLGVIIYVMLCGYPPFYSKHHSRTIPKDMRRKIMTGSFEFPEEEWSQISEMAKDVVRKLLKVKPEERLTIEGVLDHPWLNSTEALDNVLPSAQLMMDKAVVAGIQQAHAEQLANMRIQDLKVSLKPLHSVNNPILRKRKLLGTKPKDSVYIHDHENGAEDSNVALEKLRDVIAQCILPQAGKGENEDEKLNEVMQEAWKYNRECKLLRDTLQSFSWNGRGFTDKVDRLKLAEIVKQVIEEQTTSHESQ
Description: Inhibition of His-tagged full length human recombinant MAPKAPK5 expressed in baculovirus at 100 nM

[16] = target: Phosphatidylinositol 4,5-bisphosphate 3-kinase catalytic subunit alpha isoform (Homo sapiens) (UniProt P42336); details: 100 nM
Description: Inhibition of PI3Kalpha (unknown origin) at 100 nM

Question: For `COC(=O)c1cc2cc(NCc3cc(NC(=O)c4cc(-n5cnc(C)c5)cc(C(F)(F)F)c4)ccc3C)cnc2[nH]1`, which IC50 [1] is on record?
Answer: 112 nM

Question: And the EC50 [2]?
Answer: 158 nM

Question: And the EC50 [3]?
Answer: 104 nM

Question: What about the Tmax [4] of the same molecule?
Answer: 10 min

Question: And the inhibition [5]?
Answer: > 80%

Question: And the inhibition [6]?
Answer: > 80%

Question: What about the IC50 [7] of the same molecule?
Answer: 22 nM

Question: What about the inhibition [8] of the same molecule?
Answer: 82%

Question: And the inhibition [9]?
Answer: < 40%

Question: And the inhibition [10]?
Answer: < 40%

Question: And the inhibition [11]?
Answer: < 40%

Question: And the inhibition [12]?
Answer: < 40%

Question: And the inhibition [13]?
Answer: < 40%

Question: And the inhibition [14]?
Answer: < 40%

Question: What about the inhibition [15] of the same molecule?
Answer: < 40%

Question: What about the inhibition [16] of the same molecule?
Answer: < 40%

— ChEMBL document CHEMBL3808348, “Rational Design, Synthesis, and Biological Evaluation of 7-Azaindole Derivatives as Potent Focused Multi-Targeted Kinase Inhibitors” (J Med Chem, 2016)
